# Measurements published in patent US7186731B2, “2-cyanopyrrolidinecarboxamide compound” (Astellas Pharma Inc., priority 2003, dated 2007).
# Structures can show the parent of a compound that is named as a salt.
# Target: T1, human plasma DPP-IV (Homo sapiens, UniProt P27487)
# T1 construct: from tissue; host or cells: human plasma
# Assay: Inhibition Test of Human Plasma DPP-IV
# Type: biochemical
# Details: substrate H-glycine-proline-AMC, 20 minutes incubation at room temperature, fluorescence
# Protocol: Inhibition Test of Human Plasma DPP-IV
# Briefly, 20 μL of human plasma were mixed with 20 μL of 80 mM MgCl2 in assay buffer (25 mM HEPES, 140 mM NaCl, 1% RIA-grade BSA, pH7.8), and were incubated in a room temperature for 60 minutes. Then the reaction was initiated by the addition of both 20 μL of test compounds and 20 μL of 0.2 mM substrate (H-glycine-proline-AMC; AMC is 7-amino-4-methylcoumarine), they were dissolved in the assay buffer.
# After 20 minutes incubation in a room temperature (kept in the dark), fluorescence was measured (Excitation 380 nm, Emission 460 nm). A fluorescence-concentration curve of free AMC was obtained using AMC solution in the assay buffer with appropriate concentration. Plasma DPP-IV activities, with or without the test compounds, were expressed as the amount of product per minute per mL. The potency of the test compounds as DPP-IV inhibitor was expressed as IC50.
# T1 sequence (P27487 39-766 limits assumed): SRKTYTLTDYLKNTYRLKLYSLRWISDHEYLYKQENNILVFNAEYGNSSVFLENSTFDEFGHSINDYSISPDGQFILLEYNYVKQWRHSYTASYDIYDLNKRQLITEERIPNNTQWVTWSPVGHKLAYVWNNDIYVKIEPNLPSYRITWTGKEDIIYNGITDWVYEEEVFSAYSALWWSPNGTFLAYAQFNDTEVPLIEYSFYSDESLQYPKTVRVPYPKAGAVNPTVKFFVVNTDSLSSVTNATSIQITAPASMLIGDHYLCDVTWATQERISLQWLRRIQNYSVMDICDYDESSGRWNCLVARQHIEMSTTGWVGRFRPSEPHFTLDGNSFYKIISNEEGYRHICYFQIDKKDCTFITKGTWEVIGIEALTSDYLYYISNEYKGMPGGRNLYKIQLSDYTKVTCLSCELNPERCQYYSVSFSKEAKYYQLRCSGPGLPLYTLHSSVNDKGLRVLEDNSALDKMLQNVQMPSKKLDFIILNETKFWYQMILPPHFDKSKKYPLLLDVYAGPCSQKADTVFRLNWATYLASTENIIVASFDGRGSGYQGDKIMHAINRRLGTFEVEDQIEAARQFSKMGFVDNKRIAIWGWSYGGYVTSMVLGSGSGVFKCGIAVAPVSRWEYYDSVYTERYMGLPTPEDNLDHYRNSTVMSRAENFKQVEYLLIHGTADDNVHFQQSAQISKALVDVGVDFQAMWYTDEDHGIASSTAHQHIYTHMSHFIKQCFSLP
row,SMILES,IC50
1,"N#C[C@@H]1CCCN1C(=O)[C@H]1N[C@H]2CC[C@@H]1[C@H](O)C2 [Example 2-8, (2S)-1-{[(1S,3S,4S,5R)-5-hydroxy-2-azabicyclo[2.2.2]oct-3-yl]carbonyl}-2-pyrrolidinecarbonitrile hydrochloride]",8.5 nM
2,"N#C[C@@H]1CCCN1C(=O)[C@H]1N[C@@H]2C[C@H]1C[C@H]2O [Example 5-8, (2S)-1-{[(1R,3S,4S,6R)-6-hydroxy-2-azabicyclo[2.2.1]hept-3-yl]carbonyl}-2-pyrrolidinecarbonitrile hydrochloride]",8.7 nM
3,"N#C[C@@H]1CCCN1C(=O)[C@H]1N[C@@H]2C[C@H]1C[C@H]2OCCO [Example 25-3, (2S)-1-{[(1R,3S,4S,6R)-6-(2-hydroxyethoxy)-2-azabicyclo[2.2.1]hept-3-yl]carbonyl}-2-pyrrolidinecarbonitrile hydrochloride]",4.5 nM
4,"N#C[C@@H]1C[C@H](F)CN1C(=O)[C@H]1N[C@@H]2C[C@H]1C[C@H]2O [Example 45-3, (2S,4S)-4-Fluoro-1-{[(1R,3S,4S,6R)-6-hydroxy-2-azabicyclo[2.2.1]hept-3-yl]carbonyl}-2-pyrrolidinecarbonitrile hydrochloride]",4.7 nM

# Now from value to compound:
row,IC50,SMILES
1,15 nM,"CC1(NCC(=O)N2C[C@@H](F)C[C@H]2C#N)CCOCC1 [Example 7-12, (2S,4S)-4-Fluoro-1-{[(4-methyltetrahydro-2H-pyran-4-yl)amino]acetyl}-2-pyrrolidinecarbonitrile]"
2,13 nM,"CC1(NCC(=O)N2C[C@@H](F)C[C@H]2C#N)CCN(c2cnccn2)CC1 [Example 10-8, (2S,4S)-4-Fluoro-1-({[4-methyl-1-(2-pyrazinyl)-4-piperidinyl]amino}acetyl)-2-pyrrolidinecarbonitrile]"

# Test system: not given
# Assay: not given
# Details: not given
row,melting point,SMILES
1,166 to 167 °C,"CC1(NCC(=O)N2C[C@@H](F)C[C@H]2C#N)CCN(c2cnccn2)CC1 [Example 10-8, (2S,4S)-4-Fluoro-1-({[4-methyl-1-(2-pyrazinyl)-4-piperidinyl]amino}acetyl)-2-pyrrolidinecarbonitrile]"
